In PubChem BioAssay (NCI):
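These data come from cells grown in 96-well plates and exposed to compound for 48 hours at five concentrations. The concentration for 50% growth inhibition is given as GI50. TGI: total growth inhibition.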

Experiments:
Test in all cases: inhibition of tumour cell growth, NCI panel, 48 h
IGROV1 ovarian = test system: IGROV1 ovarian
SW-620 colon = test system: SW-620 colon
SNB-19 CNS = test system: SNB-19 CNS
ACHN renal = test system: ACHN renal
SK-MEL-2 melanoma = test system: SK-MEL-2 melanoma
UACC-257 melanoma = test system: UACC-257 melanoma
SK-MEL-5 melanoma = test system: SK-MEL-5 melanoma
A498 renal = test system: A498 renal
OVCAR-4 ovarian = test system: OVCAR-4 ovarian
HCT-116 colon = test system: HCT-116 colon

SMILES	GI50 (IGROV1 ovarian) [µM]	TGI (IGROV1 ovarian) [µM]	GI50 (SW-620 colon) [µM]	TGI (SW-620 colon) [µM]	GI50 (SNB-19 CNS) [µM]	TGI (SNB-19 CNS) [µM]	GI50 (ACHN renal) [µM]	TGI (ACHN renal) [µM]	GI50 (SK-MEL-2 melanoma) [µM]	TGI (SK-MEL-2 melanoma) [µM]	GI50 (UACC-257 melanoma) [µM]	TGI (UACC-257 melanoma) [µM]	GI50 (SK-MEL-5 melanoma) [µM]	TGI (SK-MEL-5 melanoma) [µM]	GI50 (A498 renal) [µM]	TGI (A498 renal) [µM]	GI50 (OVCAR-4 ovarian) [µM]	TGI (OVCAR-4 ovarian) [µM]	GI50 (HCT-116 colon) [µM]	TGI (HCT-116 colon) [µM]
O=C1/C(=C\c2ccccn2)c2ccccc2N1c1c(Cl)cccc1Cl	2.26	6.92	1.89	3.69	2.28	6.25	1.82	3.91	2.53	6.32	2.2	6.19	1.61	3.03	2.1	5.98	3.14	26.8	1.7	3.32
NC(=O)c1cccc(Nc2nccc(Nc3cccc4[nH]ncc34)n2)c1	10.5	> 25	9.09	> 25	12.7	> 25	10.9	> 25	7.91	17.8	> 19.2	> 25	6.96	> 25	5	22.7	13.2	> 25	8.58	> 25
O=C(/C=C/c1ccccc1)n1c(-c2ccc(Cl)cc2)nc2ccccc21	1.95	4.63	1.45	5.03	3.13	12.8	1.18	10	2.1	4.35	1.47	3.42	1.64	3.12	1.17	2.56	3.01	16.7	1.21	2.88
CC/C(CC(=O)CCC(=O)Nc1ccccc1[N+](=O)[O-])=N/NC(=O)C[n+]1ccccc1	–	> 100	–	> 100	–	> 100	–	> 100	–	> 100	–	> 100	–	> 100	–	> 100	–	> 100	–	> 100
Cc1nc(N2CCC3(CC2)CO[C@@H](C)[C@H]3N)c(CO)nc1Sc1ccnc(N)c1Cl	0.629	> 100	> 100	> 100	14.8	> 100	4.81	> 100	> 100	> 100	> 90.4	> 100	14.1	35	0.657	> 100	22.4	> 100	59.7	> 100
CCc1cccc(CC)c1NC(=O)C1=C(C)NC(C)=C(C(=O)Nc2c(CC)cccc2CC)C1c1ccc([N+](=O)[O-])cc1	–	52.4	–	59.1	–	> 100	–	> 100	–	65.3	–	53.1	–	33	–	64	–	33.8	–	46.4
COc1ccc(C(=O)c2cc3c(N)c(C(=O)Nc4ccc(C)cc4)sc3nc2C)cc1	6.25	38.2	3.61	> 100	4.22	30.9	5.28	29.2	4.04	34.7	20.4	> 100	3.14	11.5	1.5	9.59	5.55	> 100	3.19	22.2
Cc1ccc(C)c(C2NC(=O)c3ccccc3N2)c1 (stereo not given)	–	> 100	–	> 49.6	–	> 49.5	–	> 89	–	72.6	–	> 100	–	21.3	–	32	–	> 100	–	19.8
O=C(Nc1cccc(O)c1)C(=O)C(C(=O)c1ccc(Cl)c(Cl)c1)C1OC(=O)c2ccccc21 (stereo not given)	–	56.5	–	29	–	37.8	–	29.7	–	63.9	–	55.6	–	37.6	–	41.9	–	36.7	–	48.2
CN1C(=O)N[C@H]2[C@@H]3NC(=O)c4ccc(Br)n4[C@@H]3C[C@]21O	0.0617	1.6	0.116	12.5	0.0351	0.576	0.187	2.93	0.0568	0.194	0.108	1.52	< 0.0148	0.0653	0.27	1.17	0.093	1.56	0.112	2.39
CN(C)c1nc(=Nc2cccc(Cl)c2)ss1	–	51	–	18.8	–	> 100	–	37.2	–	42.1	–	36	–	> 100	–	93	–	29.8	–	24.2
O=C1CCCCCCCCCCC1CN1CCCCC1 (stereo not given)	–	> 100	–	> 100	–	> 100	–	> 100	–	> 100	–	> 100	–	28.3	–	> 100	–	> 100	–	> 100
CCOC(=N)CC(=O)c1ccccc1	–	> 100	–	> 100	–	> 100	–	> 100	–	> 100	–	> 100	–	> 100	–	> 100	–	> 100	–	> 100
O=C1C=CC(=O)c2cc(Sc3ccccc3)c(=O)ccc21	–	35	–	11.7	–	38.1	–	23.3	–	28.7	–	33.6	–	31.5	–	31.4	–	23.2	–	42.6
OCC(O)c1nc2ccc3[nH]ncc3c2c2c1CCCC2 (stereo not given)	1.38	> 50	1.3	> 50	1.58	> 50	1.13	> 50	1.18	2.99	1.8	> 50	1.02	2.99	0.876	1.75	2.49	> 50	1.24	> 50
